Earlier results as cited in patent publication US10238717B2 (Latitude Pharmaceuticals, Inc., priority 2014, dated 2019).
Like-named read-outs stand apart in the source and are kept apart here.

Compound | Concentration of sugar in water at saturation (25° C.) | Concentration of sugar in water at saturation (20° C.) | further results
OC[C@H]1O[C@@H](O[C@H]2[C@H](O)[C@@H](O)C(O)O[C@@H]2CO)[C@H](O)[C@@H](O)[C@H]1O (some centres unmarked) [lactose] | about 21.6 % w/v |  | 
OC[C@@H](O)[C@@H](O)[C@H](O)[C@H](O)CO [mannitol] |  |  | Concentration of sugar in water at saturation (temperature not given): about 25 % w/v
OC[C@@H](O)[C@@H](O)[C@H](O)[C@@H](O)CO [sorbitol] |  | about 22 % w/v | 

Now from value to compound, other results behind:

Concentration of sugar in water at saturation (25° C.) | Concentration of sugar in water at saturation (20° C.) | Compound | further results
about 200 % w/v |  | OC[C@H]1O[C@@](CO)(O[C@H]2O[C@H](CO)[C@@H](O)[C@H](O)[C@H]2O)[C@@H](O)[C@@H]1O [sucrose] | 
 | about 68.9 % w/v | OC[C@H]1O[C@H](O[C@H]2O[C@H](CO)[C@@H](O)[C@H](O)[C@H]2O)[C@H](O)[C@@H](O)[C@@H]1O [trehalose] | 
